How the values were obtained:
Assay in all cases: Test F preemergence/postemergence greenhouse plant response rating 0 to 100
[1] = test system: winter barley; format: in vivo, Hordeum vulgare cv. ‘Igri’; details: PREEMERGENCE, Rate 250 g/ha, 0 to 100 scale
Excerpt: (§1) Compounds evaluated in this test were formulated in a non-phytoxic solvent and applied to the soil surface before plant seedlings emerged (preemergence application) and to plants that were in the one-to-four leaf stage (postemergence application). A sandy loam soil was used for the preemergence test while a mixture of sandy loam soil and greenhouse potting mix in a 60:40 ratio was used for the postemergence test. Test compounds were applied within approximately one day after planting seeds for the preemergence test. Plantings of these crops and weed species were adjusted to produce plants of appropriate size for the postemergence test. All plant species were grown using normal greenhouse practices. Crop and weed species include winter barley (Hordeum vulgare cv. ‘Igri’), blackgrass (Alopecurus myosuroides), chickweed (Stellaria media), downy brome (Bromus tectorum), field violet (Viola arvensis), galium (Galium aparine), green foxtail (Setaria viridis), kochia (Kochia scoparia), lambsquarters (Chenopodium album), speedwell (Veronica persica), rape (Brassica napus), ryegrass (Lolium multiflorum), sugar beet (Beta vulgaris cv. ‘USl’), sunflower (Helianthus annuus cv. ‘Russian Giant’), spring wheat (Triticum aestivum cv. ‘ERA’), winter wheat (Triticum aestivum cv. ‘Talent’), wild buckwheat (Polygonum convolvulus), wild mustard (Sinapis arvensis), wild oat (Avena fatua), and wild radish (Raphanus raphanistrum). Blackgrass, galium and wild oat were treated at two growth stages. […] Treated plants and untreated controls were maintained in a greenhouse for approximately 21 to 28 days, after which all treated plants were compared to untreated controls and visually evaluated. […] A dash response (-) means no test result.

[2] = test system: downy brome; format: in vivo, Bromus tectorum; details: 0 to 100 scale
Excerpt: as §1

[3] = test system: ryegrass; format: in vivo, Lolium multiflorum; details: 0 to 100 scale
Excerpt: as §1

[4] = test system: wild oat; format: in vivo, Avena fatua; details: 0 to 100 scale
Excerpt: as §1

[5] = test system: kochia; format: in vivo, Kochia scoparia; details: 0 to 100 scale
Excerpt: as §1

[6] = test system: lambsquarters; format: in vivo, Chenopodium album; details: 0 to 100 scale
Excerpt: as §1

[7] = test system: winter wheat; format: in vivo, Triticum aestivum cv. ‘Talent’; details: 0 to 100 scale
Excerpt: as §1

[8] = test system: chickweed; format: in vivo, Stellaria media; details: 0 to 100 scale
Excerpt: as §1

C#CCOc1cc(-c2nn3c(c2Br)CCCC3)c(F)cc1Cl [Compound 26]
55: Ryegrass plant response rating ([3]; POSTEMERGENCE, Rate 250 g/ha)
50: Downy brome plant response rating ([2]; POSTEMERGENCE, Rate 125 g/ha) | Wild oat (1) plant response rating ([4]; POSTEMERGENCE, Rate 250 g/ha, stage (1) two to three leaves) | Wild oat (2) plant response rating ([4]; PREEMERGENCE, Rate 250 g/ha, Wild oat (2)) | Lambsquarters plant response rating ([6]; POSTEMERGENCE, Rate 8 g/ha) | Lambsquarters plant response rating ([6]; POSTEMERGENCE, Rate 16 g/ha) | Chickweed plant response rating ([8]; PREEMERGENCE, Rate 32 g/ha)
45: Wild oat (1) plant response rating ([4]; POSTEMERGENCE, Rate 125 g/ha, stage (1) two to three leaves) | Chickweed plant response rating ([8]; PREEMERGENCE, Rate 16 g/ha)
30: Downy brome plant response rating ([2]; POSTEMERGENCE, Rate 64 g/ha) | Downy brome plant response rating ([2]; PREEMERGENCE, Rate 125 g/ha) | Ryegrass plant response rating ([3]; POSTEMERGENCE, Rate 125 g/ha) | Wild oat (2) plant response rating ([4]; POSTEMERGENCE, Rate 250 g/ha, stage (2) approximately four leaves or initial tillering) | Wild oat (2) plant response rating ([4]; PREEMERGENCE, Rate 125 g/ha, Wild oat (2)) | Wild oat (1) plant response rating ([4]; PREEMERGENCE, Rate 250 g/ha, Wild oat (1)) | Wheat (Winter) plant response rating ([7]; POSTEMERGENCE, Rate 125 g/ha) | Chickweed plant response rating ([8]; POSTEMERGENCE, Rate 4 g/ha)
40: Downy brome plant response rating ([2]; PREEMERGENCE, Rate 250 g/ha) | Ryegrass plant response rating ([3]; PREEMERGENCE, Rate 64 g/ha) | Wild oat (1) plant response rating ([4]; POSTEMERGENCE, Rate 64 g/ha, stage (1) two to three leaves) | Chickweed plant response rating ([8]; POSTEMERGENCE, Rate 8 g/ha)
0: Downy brome plant response rating ([2]; POSTEMERGENCE, Rate 4 g/ha) | Downy brome plant response rating ([2]; POSTEMERGENCE, Rate 8 g/ha) | Downy brome plant response rating ([2]; POSTEMERGENCE, Rate 16 g/ha) | Downy brome plant response rating ([2]; POSTEMERGENCE, Rate 32 g/ha) | Downy brome plant response rating ([2]; PREEMERGENCE, Rate 4 g/ha) | Downy brome plant response rating ([2]; PREEMERGENCE, Rate 8 g/ha) | Downy brome plant response rating ([2]; PREEMERGENCE, Rate 16 g/ha) | Downy brome plant response rating ([2]; PREEMERGENCE, Rate 32 g/ha) | Downy brome plant response rating ([2]; PREEMERGENCE, Rate 64 g/ha) | Ryegrass plant response rating ([3]; POSTEMERGENCE, Rate 4 g/ha) | Ryegrass plant response rating ([3]; POSTEMERGENCE, Rate 8 g/ha) | Ryegrass plant response rating ([3]; POSTEMERGENCE, Rate 16 g/ha) | Ryegrass plant response rating ([3]; PREEMERGENCE, Rate 4 g/ha) | Ryegrass plant response rating ([3]; PREEMERGENCE, Rate 8 g/ha) | Ryegrass plant response rating ([3]; PREEMERGENCE, Rate 16 g/ha) | Wild oat (1) plant response rating ([4]; POSTEMERGENCE, Rate 4 g/ha, stage (1) two to three leaves) | Wild oat (2) plant response rating ([4]; POSTEMERGENCE, Rate 4 g/ha, stage (2) approximately four leaves or initial tillering) | Wild oat (1) plant response rating ([4]; POSTEMERGENCE, Rate 8 g/ha, stage (1) two to three leaves) | Wild oat (2) plant response rating ([4]; POSTEMERGENCE, Rate 8 g/ha, stage (2) approximately four leaves or initial tillering) | Wild oat (1) plant response rating ([4]; POSTEMERGENCE, Rate 16 g/ha, stage (1) two to three leaves) | Wild oat (2) plant response rating ([4]; POSTEMERGENCE, Rate 16 g/ha, stage (2) approximately four leaves or initial tillering) | Wild oat (1) plant response rating ([4]; PREEMERGENCE, Rate 4 g/ha, Wild oat (1)) | Wild oat (2) plant response rating ([4]; PREEMERGENCE, Rate 4 g/ha, Wild oat (2)) | Wild oat (1) plant response rating ([4]; PREEMERGENCE, Rate 8 g/ha, Wild oat (1)) | Wild oat (2) plant response rating ([4]; PREEMERGENCE, Rate 8 g/ha, Wild oat (2)) | Wild oat (1) plant response rating ([4]; PREEMERGENCE, Rate 16 g/ha, Wild oat (1)) | Wild oat (2) plant response rating ([4]; PREEMERGENCE, Rate 16 g/ha, Wild oat (2)) | Wild oat (1) plant response rating ([4]; PREEMERGENCE, Rate 32 g/ha, Wild oat (1)) | Wild oat (2) plant response rating ([4]; PREEMERGENCE, Rate 32 g/ha, Wild oat (2)) | Kochia plant response rating ([5]; PREEMERGENCE, Rate 4 g/ha) | Kochia plant response rating ([5]; PREEMERGENCE, Rate 8 g/ha) | Lambsquarters plant response rating ([6]; PREEMERGENCE, Rate 4 g/ha) | Wheat (Winter) plant response rating ([7]; POSTEMERGENCE, Rate 4 g/ha) | Wheat (Winter) plant response rating ([7]; POSTEMERGENCE, Rate 8 g/ha) | Wheat (Winter) plant response rating ([7]; POSTEMERGENCE, Rate 16 g/ha) | Wheat (Winter) plant response rating ([7]; PREEMERGENCE, Rate 4 g/ha) | Wheat (Winter) plant response rating ([7]; PREEMERGENCE, Rate 8 g/ha) | Wheat (Winter) plant response rating ([7]; PREEMERGENCE, Rate 16 g/ha) | Wheat (Winter) plant response rating ([7]; PREEMERGENCE, Rate 32 g/ha) | Wheat (Winter) plant response rating ([7]; PREEMERGENCE, Rate 64 g/ha) | Chickweed plant response rating ([8]; PREEMERGENCE, Rate 4 g/ha) | Chickweed plant response rating ([8]; PREEMERGENCE, Rate 8 g/ha)
20: Winter Barley plant response rating [1] | Ryegrass plant response rating ([3]; POSTEMERGENCE, Rate 64 g/ha) | Ryegrass plant response rating ([3]; PREEMERGENCE, Rate 32 g/ha) | Wild oat (2) plant response rating ([4]; POSTEMERGENCE, Rate 125 g/ha, stage (2) approximately four leaves or initial tillering) | Wild oat (2) plant response rating ([4]; PREEMERGENCE, Rate 64 g/ha, Wild oat (2)) | Wild oat (1) plant response rating ([4]; PREEMERGENCE, Rate 125 g/ha, Wild oat (1)) | Wheat (Winter) plant response rating ([7]; POSTEMERGENCE, Rate 64 g/ha) | Wheat (Winter) plant response rating ([7]; POSTEMERGENCE, Rate 250 g/ha) | Wheat (Winter) plant response rating ([7]; PREEMERGENCE, Rate 250 g/ha)
25: Wild oat (1) plant response rating ([4]; POSTEMERGENCE, Rate 32 g/ha, stage (1) two to three leaves)
90: Chickweed plant response rating ([8]; POSTEMERGENCE, Rate 32 g/ha)
10: Downy brome plant response rating ([2]; POSTEMERGENCE, Rate 250 g/ha) | Wild oat (1) plant response rating ([4]; PREEMERGENCE, Rate 64 g/ha, Wild oat (1)) | Wheat (Winter) plant response rating ([7]; PREEMERGENCE, Rate 125 g/ha)
100: Kochia plant response rating ([5]; POSTEMERGENCE, Rate 4 g/ha) | Kochia plant response rating ([5]; POSTEMERGENCE, Rate 8 g/ha) | Kochia plant response rating ([5]; POSTEMERGENCE, Rate 16 g/ha) | Kochia plant response rating ([5]; POSTEMERGENCE, Rate 32 g/ha) | Kochia plant response rating ([5]; POSTEMERGENCE, Rate 64 g/ha) | Kochia plant response rating ([5]; POSTEMERGENCE, Rate 125 g/ha) | Kochia plant response rating ([5]; POSTEMERGENCE, Rate 250 g/ha) | Kochia plant response rating ([5]; PREEMERGENCE, Rate 64 g/ha) | Kochia plant response rating ([5]; PREEMERGENCE, Rate 125 g/ha) | Lambsquarters plant response rating ([6]; POSTEMERGENCE, Rate 32 g/ha) | Lambsquarters plant response rating ([6]; POSTEMERGENCE, Rate 64 g/ha) | Lambsquarters plant response rating ([6]; POSTEMERGENCE, Rate 125 g/ha) | Lambsquarters plant response rating ([6]; POSTEMERGENCE, Rate 250 g/ha) | Lambsquarters plant response rating ([6]; PREEMERGENCE, Rate 32 g/ha) | Lambsquarters plant response rating ([6]; PREEMERGENCE, Rate 64 g/ha) | Lambsquarters plant response rating ([6]; PREEMERGENCE, Rate 125 g/ha) | Chickweed plant response rating ([8]; POSTEMERGENCE, Rate 16 g/ha) | Chickweed plant response rating ([8]; POSTEMERGENCE, Rate 64 g/ha) | Chickweed plant response rating ([8]; POSTEMERGENCE, Rate 125 g/ha) | Chickweed plant response rating ([8]; POSTEMERGENCE, Rate 250 g/ha) | Chickweed plant response rating ([8]; PREEMERGENCE, Rate 64 g/ha) | Chickweed plant response rating ([8]; PREEMERGENCE, Rate 125 g/ha) | Chickweed plant response rating ([8]; PREEMERGENCE, Rate 250 g/ha)
80: Ryegrass plant response rating ([3]; PREEMERGENCE, Rate 250 g/ha) | Kochia plant response rating ([5]; PREEMERGENCE, Rate 16 g/ha) | Kochia plant response rating ([5]; PREEMERGENCE, Rate 32 g/ha) | Lambsquarters plant response rating ([6]; PREEMERGENCE, Rate 16 g/ha)
15: Wild oat (2) plant response rating ([4]; POSTEMERGENCE, Rate 32 g/ha, stage (2) approximately four leaves or initial tillering) | Wild oat (2) plant response rating ([4]; POSTEMERGENCE, Rate 64 g/ha, stage (2) approximately four leaves or initial tillering) | Wheat (Winter) plant response rating ([7]; POSTEMERGENCE, Rate 32 g/ha)
5: Ryegrass plant response rating ([3]; POSTEMERGENCE, Rate 32 g/ha)
60: Ryegrass plant response rating ([3]; PREEMERGENCE, Rate 125 g/ha)
70: Lambsquarters plant response rating ([6]; PREEMERGENCE, Rate 8 g/ha)

Reference: patent US6358885B1, “Substituted phenylheterocyclic herbicides” (Mississippi State University, priority 1992, dated 2002)
